The values below come from patent publication US20220331408A1, “TREATMENT OF GLYCOGEN STORAGE DISEASE (GSD)” (GENETHON, priority 2019, published 2022).

Data set [1] concerns the target GAA (Homo sapiens, UniProt P10253). Put plainly: GAA activity in tissues (4-MU substrate cleavage) of GAA KO mice injected with AAV-hGAA plus chaperones. Type of data set: in vivo. The following applies: for GAA activity (uptake) in tissues: tissues overall (FIG. 7). As for the experimental part: (§1) Three to four-month-old GAA deficient male mice were divided into six groups and one control group was composed by wild-type littermates. Each group was composed by eight mice in maximum two cages, to facilitate the administration of the drugs dissolved in drinking water. Starting from day 0, GAA deficient (KO) mice (mouse strain B6; 129-Gaa^tm1Rabn/J) were injected with AAV-hGAA at 1×10^11 vg/kg via tail vein injection in combination with the different pharmacological chaperones (PC) dissolved in the drinking water. In parallel, untreated GAA wild-type mice and two groups of GAA deficient mice injected with the AAV-hGAA vector or PBS were used as controls. PC molecules were orally administered to the mice, using a “3 days on/4 days off” regimen, consisting in three consecutive days of treatment followed by four consecutive days with drinking water only, as described in FIG. 4. Mice receive 100 mg/kg/die of duvoglustat (DNJ, AX61Q1, Interchim, San Diego, Calif.), 100 mg/kg/die of duvoglustat combined with 25 mg/kg/die of ambroxol hydrochloride (DNJ-ABX), 25 mg/kg/die of ambroxol hydrochloride (ABX, A9797, Sigma, Saint Louis, Mo.), 4200 mg/kg/die of N-acetyl-cysteine (NAC, A7250, Sigma, Saint Louis, Mo.) dissolved in drinking water (FIG. 4) or normal drinking water.
Circulating hGAA activity and levels were monitored over a period of two months. Mice were sacrificed and different organs and muscles were collected (heart, diaphragm, quadriceps, and triceps) to measure the uptake of GAA in tissues and the glycogen clearance.
At the end of the study (2 months post-injection), animals were sacrificed by CO2 inhalation. Heart, diaphragm, quadriceps, and triceps were collected and snap-frozen in liquid nitrogen for biochemical analysis. Frozen samples are stored at −80° C. until processing.
GAA activity was assessed in plasma and tissue by measurement of 4-methyl-umbelliferyl-α-d-glucoside (4-MU, Sigma, St Louis, Mo.) cleavage at pH 4.3. To this end, mouse tissues collected at sacrifice was homogenized in PBS. Insoluble proteins were removed by centrifugation. The protein content of the resultant lysates was quantified via the BCA Protein Assay (Thermo Fisher Scientific, Waltham, Mass.). Plasma and tissues samples were diluted in water and 10 μL of each sample were incubated with 20 μL of reconstituted substrate for 1 hr at 37° C. After stopping the reaction, the released fluorescence was measured with EN-SPIRE® fluorimeter (Perkin Elmer, Waltham, Mass.). GAA activity was normalized against total protein content or plasma volume.

The target of data set [2] is T1, human GAA (hGAA) (Homo sapiens, UniProt P10253). The data set is described as follows: Mature lysosomal 70 KDa hGAA in tissues (uptake) by Western blot, wild-type mice injected with AAV-GAA plus chaperones. It is filed as in vivo. Details: expressed in transfected cells. The following applies: for GAA uptake in tissues: tissues overall (FIG. 3). The procedure: Six-eight-week-old C57Bl/6 male mice were divided into 9 groups of five mice. 5×10^11 vg/kg of AAV8-sp7-Δ8-co1GAA vectors were administered at day 0 intravenously in awake, restrained animals via tail vein injection. Two months after the AAV treatment, 7 pharmacological chaperone molecules or combination of them were orally administered to the mice using a “3 on/4 off” regimen (three consecutive days of treatment followed by four consecutive days with drinking water only) for four weeks. At the end of this four-week period, all mice were sacrificed and different organs and muscles were collected (liver, heart, brain, spinal cord, diaphragm, quadriceps, and triceps). C57Bl/6 mice were injected either with PBS (CTRL) or with 5×10^11 vg/kg of the AAV8 vector expressing secretable therapeutic hGAA polypeptide (AAV-GAA).
Two months after vector injection, mice were treated for four weeks with 100 mg/kg/die of duvoglustat (DNJ, AX61Q1, Interchim, San Diego, Calif.), 100 mg/kg/die of duvoglustat combined with 25 mg/kg/die of ambroxol (DNJ-ABX), 25 mg/kg/die of ambroxol hydrochloride (ABX, A9797, Sigma, Saint Louis, Mo.), 2 mg/kg/die of voglibose (VOGLIBOSE, S4101, Selleckchem, Houston, Tex.), 20 mg/kg/die of acarbose (ACARBOSE, S1271, Selleckchem, Houston, Tex.), 2 mg/kg/die of miglitol (MIGLITOL, S2589, Selleckchem, Houston, Tex.) or 4200 mg/kg/die of N-acetyl-cysteine (NAC, A7250, Sigma, Saint Louis, Mo.) dissolved in drinking water (FIG. 1). One group received normal drinking water (WATER).
Three months after vector injection, mice were sacrificed and the levels of human GAA (hGAA) in blood and tissues were analyzed by Western blot.
At the end of the study (3 months post-injection), animals were sacrificed by CO2 inhalation. Liver, heart, brain, spinal cord, diaphragm, quadriceps, and triceps were collected and snap-frozen in liquid nitrogen for biochemical analysis. Frozen samples were stored at −80° C. until processing.
Mouse tissues were collected at sacrifice and homogenized in PBS. Protein concentration was determined using the BCA Protein Assay (Thermo Fisher Scientific, Waltham, Mass.). Plasma and tissues samples were diluted 1:20 in water (except for brain, where samples were diluted 1:200). SDS-page electrophoresis was performed in a 4-12% gradient polyacrylamide gel. After transfer, the membrane was blocked with Odyssey buffer (Li-Cor Biosciences, Lincoln, Nebr.), incubated with an anti-human GAA antibody (rabbit monoclonal antibody, Abcam, Cambridge, UK) and an anti-GAPDH antibody (rabbit polyclonal antibodies, PA1-988, Life Technologies, Carlsbad, Calif.). The membrane was washed and incubated with the appropriate secondary antibody (Li-Cor Biosciences, Lincoln, Nebr.), and visualized by Odyssey imaging system (925-32213, Li-Cor Biosciences, Lincoln, Nebr.). To measure the uptake of GAA in tissues, the 70 KDa band (mature form), visualized by the anti-GAA antibody was quantified and normalized to the levels of expression of GAPDH used as loading control.
Background: Immunoblotting shows a protein as a band on a membrane.

In data set [3] the test system is GAA. The following applies: Pompe cells model expressing mutant forms of GAA, reference [9]; cited from earlier work.
Data set [4] deals with T1, human GAA (hGAA). Put plainly: Circulating hGAA levels by Western blot in wild-type mice injected with AAV-GAA and given chaperones in drinking water. The note with it: wild-type C57Bl/6 mice, AAV-GAA 5×10^11 vg/kg, three months after vector injection, vs AAV-GAA mice on normal water (FIG. 2). It is filed as in vivo. As for the experimental part:
Six-eight-week-old C57Bl/6 male mice were divided into 9 groups of five mice. 5×10^11 vg/kg of AAV8-sp7-Δ8-co1GAA vectors were administered at day 0 intravenously in awake, restrained animals via tail vein injection. Two months after the AAV treatment, 7 pharmacological chaperone molecules or combination of them were orally administered to the mice using a “3 on/4 off” regimen (three consecutive days of treatment followed by four consecutive days with drinking water only) for four weeks. At the end of this four-week period, all mice were sacrificed and different organs and muscles were collected (liver, heart, brain, spinal cord, diaphragm, quadriceps, and triceps). C57Bl/6 mice were injected either with PBS (CTRL) or with 5×10^11 vg/kg of the AAV8 vector expressing secretable therapeutic hGAA polypeptide (AAV-GAA). […]
Three months after vector injection, mice were sacrificed and the levels of human GAA (hGAA) in blood and tissues were analyzed by Western blot. […]
Mouse tissues were collected at sacrifice and homogenized in PBS. Protein concentration was determined using the BCA Protein Assay (Thermo Fisher Scientific, Waltham, Mass.). […] To measure the uptake of GAA in tissues, the 70 KDa band (mature form), visualized by the anti-GAA antibody was quantified and normalized to the levels of expression of GAPDH used as loading control.

Data set [5] addresses T1, human GAA (hGAA). The data set is described as follows: Circulating hGAA levels by Western blot in GAA KO mice injected with AAV-hGAA plus chaperones. Type of data set: in vivo. The note with it: AAV-hGAA 1×10^11 vg/kg, two months after vector injection (FIG. 5). As for the experimental part: as §1
Circulating hGAA activity and levels were monitored over a period of two months. […]

The conditions of data set [6]: general statement, no test described; cited from earlier work.

With `Nc1c(Br)cc(Br)cc1CN[C@H]1CC[C@H](O)CC1` [ABX, ambroxol], the “GAA activity (uptake) in tissues” value at GAA [1] is on record as “No significant differences”. For the same compound, the “GAA uptake in tissues” value at human GAA (hGAA) [2] is reported as “increase”. Moreover, the “tissue uptake of GAA, especially in a tissue of the nervous system” value in the data set with GAA [3] is “did not increase”.

Take `OC[C@H]1NC[C@H](O)[C@@H](O)[C@@H]1O` [DNJ, 1-deoxynojirimycin]: the “levels of circulating hGAA” value on human GAA (hGAA) [4] and on human GAA (hGAA) [5] was “significant increase” in each case. Besides, on GAA [1] (two months (FIG. 7A), significance only with both DNJ and ABX), the “GAA activity in heart” value was “increased enzyme activity”. In addition, the “GAA activity in diaphragm” value at GAA [1] (two months (FIG. 7B), significance only with both DNJ and ABX) was “increased enzyme activity”. Moreover, on GAA [1] (two months (FIG. 7C), significance only with both DNJ and ABX), the “GAA activity in triceps” value was “increased enzyme activity”. Besides, the “GAA activity in quadriceps” value at GAA [1] (two months (FIG. 7D), significance only with both DNJ and ABX) was “increased enzyme activity”. On human GAA (hGAA) [2] (Western blot (FIG. 3B), significance reached in triceps only for DNJ group), the “mature lysosomal form of hGAA in triceps” value is reported as “increased levels”. In addition, at human GAA (hGAA) [2] (Western blot (FIG. 3F)), the “mature lysosomal form of hGAA in spinal cord” value is reported as “increased levels”. In addition, at human GAA (hGAA) [2] (Western blot band density normalized to GAPDH (FIG. 3C)), the “mature lysosomal form of hGAA in diaphragm” value is reported as “increased levels”. Also, the “GAA uptake in tissues” value on human GAA (hGAA) [2] was “increase”.

Regarding `CC(=O)N[C@@H](CS)C(=O)O` [NAC, N-acetylcysteine], the “levels of circulating hGAA” value at human GAA (hGAA) [4] is on record as “significant increase”. In addition, the “GAA activity (uptake) in tissues” value at GAA [1] is given as “No significant differences”. For the same compound, the “GAA uptake in tissues” value on human GAA (hGAA) [2] was “increase”.

As for “recombinant hGAA (ERT): recombinant GAA polypeptide alglucosidase alfa, marketed by Genzyme as Lumizyme or Myozyme”, the half-life entry in data set [6] is “relatively short”.
